Assay results reported in patent US9308295B2, “Oxygenated demineralized bone matrix for bone growth” (THERACELL, INC., priority 2013, dated 2016).

Key:
[1] = test system: new bone formation in subcutaneous pouch; experiment: Subcutaneous implantation of DBM/PFC slurry in a rat pouch, histology at 28 days; assay type: in vivo; conditions: subcutaneous pocket, PFC with DBM
Procedure: (§1) The induction of bone growth using DBM and an oxygen carrier was previously disclosed in U.S. Publication Application No. 2012/0082704, the entire contents of which are herein incorporated by reference. In order to investigate the properties of a perfluorocarbon (PFC) oxygen carrier and to investigate the effects of DBM and a PFC in two environments having different vascularization, four different PFCs were assayed in combination with DBM. Specifically perfluorohexane, (PFC1), perfluorodecalin (PFC2), perfluorotributylamine (PFC3), and perfluoroperhydrophenanthrene (PFC4) were mixed with DBM (powder or chips) to form a DBM/PFC mixture. In some embodiments, the amount of PFC in the PFC/DBM mixture is in the range of about 32-48 weight %. Sterile saline was then added to provide a slurry with the handling characteristics of wet sand. […] This DBM/PFC slurry mixture was then applied to a subcutaneous pouch and an intramuscular pouch in the rat biceps femoris.
(§2) 0.4 ml of the perfluorocarbon was filtered through a 0.2 micron filter and added to 0.8 g of DBM (powder or chips) at the time of surgery prior to implantation in either a subcutaneous or an intramuscular pouch in the rat biceps femoris. Using a sterile spatula the mixture was gently mixed to ensure complete wetting out of the DBM powder. This was assessed visually. 1.4 ml of sterile saline was then added to the mixture and the resultant slurry was loaded into a 1 ml syringe with its end removed, resulting in a composition including PFC at about 32 to about 48% by weight. The mixture was lightly tamped and using the plunger on the syringe a 0.2 ml implant volume was defined. This was then introduced into the rat pouch. The PFCs included several perfluoroperhydrophenanthrene and perfluorodecalin that have achieved FDA clearance for use in various procedures in humans. In prior studies bone forms readily in DBM implanted in the SD […] model, and thus a human DBM was selected specifically to be from low activity level batches (1965 picograms/gram BMP2; Spec>2300) (Allosource®, Centennial, Colo.). A formulation consisting of DBM+PFC+Saline was prepared at the time of surgery. […] Perfluorohexane, (PFC1), perfluorodecalin (PFC2), and perfluoroperhydrophenanthrene (PFC4) were obtained from a GMP manufacturer and have varying levels of US Device/Drug usage. Accordingly, perfluorohexane, (PFC1), perfluorodecalin (PFC2), and perfluoroperhydrophenanthrene (PFC4) represent material and supplier suitable for use in a commercial product.
(§3) 30 SD Rats (Rattusnorvegicus, CR; NIH-RNU) received bilateral placement of test article (i.e., the DBM and PFC slurry) intramuscularly within the biceps femoris muscle or subcutaneously. Each animal acted as its own control with a saline/DBM implant in the contralateral limb. […]

[2] = test system: new bone formation in intramuscular pouch in the rat biceps femoris; experiment: Intramuscular implantation of DBM/PFC slurry in rat biceps femoris, histology at 28 days; assay type: in vivo; conditions: DBM/PFC slurry mixture in saline, intramuscular pocket in biceps femoris, control DBM alone in contralateral limb
Procedure: as §1, §2, §3

[3] = in vivo; cited from earlier work

In the case of `FC1(F)C(F)(F)C(F)(F)C2(F)C(F)(C1(F)F)C(F)(F)C(F)(F)C1(F)C(F)(F)C(F)(F)C(F)(F)C(F)(F)C12F` (stereo not drawn) [PFC4, Perfluoroperhydrophenanthrene], the “performance of the PFCs relative to each other in new bone formation” value [1] is reported as “performed equally” and the “histologic grade of new bone formation as compared to DBM alone” value (“histologic grade … compared to DBM alone” for short) [2] is reported as “increased histologic grade of new bone formation”.
In the case of `FC1(F)C(F)(F)C(F)(F)C2(F)C(F)(F)C(F)(F)C(F)(F)C(F)(F)C2(F)C1(F)F` (stereo not drawn) [PFC2, Perfluorodecalin], the “performance of the PFCs relative to each other in new bone formation” value [1] is listed as “performed better than PFC1, PFC3, and PFC4”, the “histologic grade … compared to DBM alone” value [2] is listed as “increased histologic grade of new bone formation” and the “retention in the liver” value [3] is listed as “not retained in the liver”.
For `FC(F)(F)C(F)(F)C(F)(F)C(F)(F)N(C(F)(F)C(F)(F)C(F)(F)C(F)(F)F)C(F)(F)C(F)(F)C(F)(F)C(F)(F)F` [PFC3, Perfluorotributylamine], the “performance of the PFCs relative to each other in new bone formation” value [1] was “performed equally” and the “histologic grade … compared to DBM alone” value [2] was “increased histologic grade of new bone formation”.
For `FC(F)(F)C(F)(F)C(F)(F)C(F)(F)C(F)(F)C(F)(F)F` [PFC1, Perfluorohexane], the “performance of the PFCs relative to each other in new bone formation” value [1] was “performed equally” and the “histologic grade … compared to DBM alone” value [2] was “increased histologic grade of new bone formation”.
